{"source": "patent US20200038513A1", "about": "“MODULATORS OF FAK PROTEOLYSIS AND ASSOCIATED METHODS OF USE” (ARVINAS OPERATIONS, INC., priority 2018, published 2020)", "key": {"Fak": {"biological_target": "Fak (Homo sapiens, UniProt Q05397)", "sequence (Q05397 whole entry)": "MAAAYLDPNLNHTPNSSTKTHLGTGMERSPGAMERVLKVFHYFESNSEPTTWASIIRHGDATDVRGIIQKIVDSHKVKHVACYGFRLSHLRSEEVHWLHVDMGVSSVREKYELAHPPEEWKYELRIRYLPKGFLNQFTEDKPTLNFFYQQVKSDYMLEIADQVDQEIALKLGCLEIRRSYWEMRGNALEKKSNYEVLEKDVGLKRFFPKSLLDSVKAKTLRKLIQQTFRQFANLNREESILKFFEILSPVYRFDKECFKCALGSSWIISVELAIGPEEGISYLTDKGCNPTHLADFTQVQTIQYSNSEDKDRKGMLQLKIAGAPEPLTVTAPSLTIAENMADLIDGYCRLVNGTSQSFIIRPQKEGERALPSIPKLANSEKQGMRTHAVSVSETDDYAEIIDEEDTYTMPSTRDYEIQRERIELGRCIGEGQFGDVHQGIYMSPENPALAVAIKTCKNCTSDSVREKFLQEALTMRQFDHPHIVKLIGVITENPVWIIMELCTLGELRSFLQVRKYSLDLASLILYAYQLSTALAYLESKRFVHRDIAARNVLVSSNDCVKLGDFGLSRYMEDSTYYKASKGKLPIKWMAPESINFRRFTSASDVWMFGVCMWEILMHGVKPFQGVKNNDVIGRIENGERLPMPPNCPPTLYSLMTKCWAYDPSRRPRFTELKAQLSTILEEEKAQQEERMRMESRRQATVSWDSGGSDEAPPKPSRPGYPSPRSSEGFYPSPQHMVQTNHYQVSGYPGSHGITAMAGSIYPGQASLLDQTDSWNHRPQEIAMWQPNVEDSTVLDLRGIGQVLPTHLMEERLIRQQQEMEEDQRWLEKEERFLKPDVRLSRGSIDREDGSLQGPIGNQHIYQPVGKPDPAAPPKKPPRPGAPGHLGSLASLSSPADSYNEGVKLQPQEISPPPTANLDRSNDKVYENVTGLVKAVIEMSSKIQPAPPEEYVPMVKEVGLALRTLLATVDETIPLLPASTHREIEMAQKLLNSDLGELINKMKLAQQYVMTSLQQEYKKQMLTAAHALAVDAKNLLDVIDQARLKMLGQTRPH", "assay": "Fak degradation, immunoblotting in PC3 cells", "format": "cell-based", "conditions": "24 hour treatment", "protocol": "PC3 cells were cultured in F12-K (Kaighn's Modification of Ham's F-12 Medium), supplemented with 10% fetal bovine serum (FBS) and 1% penicillin-streptomycin at 37° C. and 5% CO2.\nIf not indicated otherwise, cells were seeded and grown to 80% confluency and were treated with compound or control for 24 hours. […] After 20 minutes the mixture was spun down at 16,000×g for 10 minutes at 4° C. to pellet insoluble materials. Protein concentration of supernatants were determined via BCA assay (Thermo Fisher) before addition of NuPAGE sample buffer containing 5% β-Me and boiling at 95° C. for 10 minutes. Equal amounts of protein were subjected to SDS-PAGE and subsequent electrophoretic transfer onto nitrocellulose membrane. […] Immunoblots were developed using enhanced chemiluminescence and visualized using a Bio-Rad Chemi-Doc MP Imaging System and quantitated with Image Lab v.5.2.1 software (Bio-Rad Laboratories). Data analysis and statistics was performed using Prism 7.0 (GraphPad).\nExamination of Target Protein (Fak) Degradation."}, "[1]": {"assay": "Pharmacokinetics of intraperitoneal or intravenous injection in CD1 mice", "format": "in vivo", "conditions": "for Conc. (ng/mL) Mouse 1 / Conc. (ng/mL) Mouse 2 / Conc. (ng/mL) Mouse 3 / concentration at 0.25 h / concentration at 0.5 h / concentration at 1 h / concentration at 2 h / concentration at 4 h / concentration at 8 h / concentration at 0.033 h / concentration at 0.083 h: CD1 mice plasma; for concentration at 0.25 h / concentration at 0.5 h / concentration at 1 h / concentration at 2 h / concentration at 4 h / concentration at 8 h / AUC(0-t) / half-life / concentration at 0.033 h / concentration at 0.083 h: male, CD1, mouse, plasma", "in_short": "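Male CD1 mice, 6-8 weeks old, 3 per group, dosed IV (5 s injection; 10% HP-b-CD, 40 mM sodium acetate, 40 mM NaCl, pH 4.5) or IP (5% EtOH, 5% Solutol HS15 in D5W). Serial dorsal metatarsal vein blood, terminal heart puncture; plasma analysed by LC/MS/MS after acetonitrile precipitation, calibration 1-2000 ng/mL.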"}, "PPB": {"assay": "PPB", "format": "in vitro ADME", "conditions": "plasma"}, "[2]": {"conditions": "ip, 10 mg/kg, IP 10 mg/kg, read-out: Conc. (ng/mL) Mouse 1"}, "[3]": {"conditions": "ip, 10 mg/kg, IP 10 mg/kg, read-out: Conc. (ng/mL) Mouse 2"}, "[4]": {"conditions": "ip, 10 mg/kg, IP 10 mg/kg, read-out: Conc. (ng/mL) Mouse 3"}, "[5]": {"conditions": "ip, 10 mg/kg, IP 10 mg/kg, read-out: Mean"}, "[6]": {"conditions": "iv, 1 mg/kg, IV 1.0 mg/kg, read-out: Conc. (ng/mL) Mouse 1"}, "[7]": {"conditions": "iv, 1 mg/kg, IV 1.0 mg/kg, read-out: Conc. (ng/mL) Mouse 2"}, "[8]": {"conditions": "iv, 1 mg/kg, IV 1.0 mg/kg, read-out: Conc. (ng/mL) Mouse 3"}, "[9]": {"conditions": "iv, 1 mg/kg, IV 1.0 mg/kg, read-out: Mean"}}, "note": "Like-named read-outs stand apart in the source and are kept apart here.", "data": [{"smiles": "Cc1ncsc1-c1ccc(CNC(=O)[C@@H]2C[C@@H](O)CN2C(=O)[C@@H](NC(=O)CCOCCOc2ccc(Nc3ncc(C(F)(F)F)c(NCc4cccc(N(C)S(C)(=O)=O)c4)n3)cc2)C(C)(C)C)cc1", "note": "[Compound 102, (2S,4R)-1-((S)-3,3-dimethyl-2-(3-(2-(4-((4-((3-(N-methylmethylsulfonamido)benzyl)amino)-5-(trifluoromethyl)pyrimidin-2-yl)amino)phenoxy)ethoxy)propanamido)butanoyl)-4-hydroxy-N-(4-(4-methylthiazol-5-yl)benzyl)pyrrolidine-2-carboxamide]", "values": [{"measurement": "Dmax", "setting": "Fak; PC-3, degradation maximum, PC3 cells, n = 3", "result": 99, "unit": "%"}, {"measurement": "DC50", "setting": "Fak; half-maximal degradation concentration, PC3 cells", "result": 3.3, "unit": "nM"}, {"measurement": "total Fak remaining", "setting": "Fak; serum deprived PC3 cells, 10 nM", "result": 34, "unit": "%"}, {"measurement": "total Fak remaining", "setting": "Fak; serum deprived PC3 cells, 50 nM", "result": 5, "unit": "%"}, {"measurement": "Fak levels", "setting": "Fak; serum deprived PC3 cells, 100 nM through 1 μM", "result": "undetectable"}, {"measurement": "Fak levels (rebound, hook effect)", "setting": "Fak; serum deprived PC3 cells, 5 μM", "result": 10, "unit": "%"}, {"measurement": "Fak levels (rebound, hook effect)", "setting": "Fak; serum deprived PC3 cells, 10 μM", "result": 27, "unit": "%"}, {"measurement": "Conc. (ng/mL) Mouse 1", "setting": "[1]; IP 10 mg/kg, 24 h", "result": "BLOQ"}, {"measurement": "Conc. (ng/mL) Mouse 2", "setting": "[1]; IP 10 mg/kg, 24 h", "result": "BLOQ"}, {"measurement": "Conc. (ng/mL) Mouse 3", "setting": "[1]; IP 10 mg/kg, 24 h", "result": "BLOQ"}, {"measurement": "Conc. (ng/mL) Mouse 1", "setting": "[1]; IV 1.0 mg/kg, 4 h", "result": "BLOQ"}, {"measurement": "Conc. (ng/mL) Mouse 2", "setting": "[1]; IV 1.0 mg/kg, 4 h", "result": "BLOQ"}, {"measurement": "Conc. (ng/mL) Mouse 1", "setting": "[1]; IV 1.0 mg/kg, 8 h", "result": "BLOQ"}, {"measurement": "Conc. (ng/mL) Mouse 2", "setting": "[1]; IV 1.0 mg/kg, 8 h", "result": "BLOQ"}, {"measurement": "Conc. (ng/mL) Mouse 3", "setting": "[1]; IV 1.0 mg/kg, 8 h", "result": "BLOQ"}, {"measurement": "Conc. (ng/mL) Mouse 1", "setting": "[1]; IV 1.0 mg/kg, 24 h", "result": "BLOQ"}, {"measurement": "Conc. (ng/mL) Mouse 2", "setting": "[1]; IV 1.0 mg/kg, 24 h", "result": "BLOQ"}, {"measurement": "Conc. (ng/mL) Mouse 3", "setting": "[1]; IV 1.0 mg/kg, 24 h", "result": "BLOQ"}, {"measurement": "concentration at 0.25 h", "setting": "[1]; [2]", "result": 521, "unit": "ng/mL"}, {"measurement": "concentration at 0.25 h", "setting": "[1]; [3]", "result": 432, "unit": "ng/mL"}, {"measurement": "concentration at 0.25 h", "setting": "[1]; [4]", "result": 338, "unit": "ng/mL"}, {"measurement": "concentration at 0.25 h", "setting": "[1]; [5]", "result": 431, "unit": "ng/mL"}, {"measurement": "concentration at 0.5 h", "setting": "[1]; [2]", "result": 674, "unit": "ng/mL"}, {"measurement": "concentration at 0.5 h", "setting": "[1]; [3]", "result": 546, "unit": "ng/mL"}, {"measurement": "concentration at 0.5 h", "setting": "[1]; [4]", "result": 551, "unit": "ng/mL"}, {"measurement": "concentration at 0.5 h", "setting": "[1]; [5]", "result": 591, "unit": "ng/mL"}, {"measurement": "concentration at 1 h", "setting": "[1]; [2]", "result": 2540, "unit": "ng/mL"}, {"measurement": "concentration at 1 h", "setting": "[1]; [3]", "result": 2130, "unit": "ng/mL"}, {"measurement": "concentration at 1 h", "setting": "[1]; [4]", "result": 2120, "unit": "ng/mL"}, {"measurement": "concentration at 1 h", "setting": "[1]; [5]", "result": 2260, "unit": "ng/mL"}, {"measurement": "concentration at 2 h", "setting": "[1]; [2]", "result": 1690, "unit": "ng/mL"}, {"measurement": "concentration at 2 h", "setting": "[1]; [3]", "result": 1070, "unit": "ng/mL"}, {"measurement": "concentration at 2 h", "setting": "[1]; [4]", "result": 1700, "unit": "ng/mL"}, {"measurement": "concentration at 2 h", "setting": "[1]; [5]", "result": 1490, "unit": "ng/mL"}, {"measurement": "concentration at 4 h", "setting": "[1]; ip, 10 mg/kg, IP 10 mg/kg, 4 h, read-out: Conc. (ng/mL) Mouse 1", "result": 560, "unit": "ng/mL"}, {"measurement": "concentration at 4 h", "setting": "[1]; ip, 10 mg/kg, IP 10 mg/kg, 4 h, read-out: Conc. (ng/mL) Mouse 2", "result": 529, "unit": "ng/mL"}, {"measurement": "concentration at 4 h", "setting": "[1]; ip, 10 mg/kg, IP 10 mg/kg, 4 h, read-out: Conc. (ng/mL) Mouse 3", "result": 559, "unit": "ng/mL"}, {"measurement": "concentration at 4 h", "setting": "[1]; ip, 10 mg/kg, IP 10 mg/kg, 4 h, read-out: Mean", "result": 549, "unit": "ng/mL"}, {"measurement": "concentration at 8 h", "setting": "[1]; ip, 10 mg/kg, IP 10 mg/kg, 8 h, read-out: Conc. (ng/mL) Mouse 1", "result": 36.4, "unit": "ng/mL"}, {"measurement": "concentration at 8 h", "setting": "[1]; ip, 10 mg/kg, IP 10 mg/kg, 8 h, read-out: Conc. (ng/mL) Mouse 2", "result": 92.3, "unit": "ng/mL"}, {"measurement": "concentration at 8 h", "setting": "[1]; ip, 10 mg/kg, IP 10 mg/kg, 8 h, read-out: Conc. (ng/mL) Mouse 3", "result": 124, "unit": "ng/mL"}, {"measurement": "concentration at 8 h", "setting": "[1]; ip, 10 mg/kg, IP 10 mg/kg, 8 h, read-out: Mean", "result": 84, "unit": "ng/mL"}, {"measurement": "AUC(0-t)", "setting": "[1]; ip, 10 mg/kg, read-out: AUClast (h * ng/mL) IP", "result": 6260, "unit": "ng·h/mL"}, {"measurement": "half-life", "setting": "[1]; ip, 10 mg/kg, read-out: T ½ (h) IP (converted)", "result": 1.46, "unit": "h"}, {"measurement": "concentration at 0.033 h", "setting": "[1]; [6]", "result": 1920, "unit": "ng/mL"}, {"measurement": "concentration at 0.033 h", "setting": "[1]; [7]", "result": 1820, "unit": "ng/mL"}, {"measurement": "concentration at 0.033 h", "setting": "[1]; [8]", "result": 1850, "unit": "ng/mL"}, {"measurement": "concentration at 0.033 h", "setting": "[1]; [9]", "result": 1860, "unit": "ng/mL"}, {"measurement": "concentration at 0.083 h", "setting": "[1]; [6]", "result": 249, "unit": "ng/mL"}, {"measurement": "concentration at 0.083 h", "setting": "[1]; [7]", "result": 368, "unit": "ng/mL"}, {"measurement": "concentration at 0.083 h", "setting": "[1]; [8]", "result": 333, "unit": "ng/mL"}, {"measurement": "concentration at 0.083 h", "setting": "[1]; [9]", "result": 317, "unit": "ng/mL"}, {"measurement": "concentration at 0.25 h", "setting": "[1]; [6]", "result": 55.9, "unit": "ng/mL"}, {"measurement": "concentration at 0.25 h", "setting": "[1]; [7]", "result": 67.4, "unit": "ng/mL"}, {"measurement": "concentration at 0.25 h", "setting": "[1]; [8]", "result": 71.8, "unit": "ng/mL"}, {"measurement": "concentration at 0.25 h", "setting": "[1]; [9]", "result": 65.1, "unit": "ng/mL"}, {"measurement": "concentration at 0.5 h", "setting": "[1]; [6]", "result": 23.7, "unit": "ng/mL"}, {"measurement": "concentration at 0.5 h", "setting": "[1]; [7]", "result": 33.2, "unit": "ng/mL"}, {"measurement": "concentration at 0.5 h", "setting": "[1]; [8]", "result": 37.6, "unit": "ng/mL"}, {"measurement": "concentration at 0.5 h", "setting": "[1]; [9]", "result": 31.5, "unit": "ng/mL"}, {"measurement": "concentration at 1 h", "setting": "[1]; [6]", "result": 11.8, "unit": "ng/mL"}, {"measurement": "concentration at 1 h", "setting": "[1]; [7]", "result": 16.7, "unit": "ng/mL"}, {"measurement": "concentration at 1 h", "setting": "[1]; [8]", "result": 18.4, "unit": "ng/mL"}, {"measurement": "concentration at 1 h", "setting": "[1]; [9]", "result": 15.6, "unit": "ng/mL"}, {"measurement": "concentration at 2 h", "setting": "[1]; [6]", "result": 6.9, "unit": "ng/mL"}, {"measurement": "concentration at 2 h", "setting": "[1]; [7]", "result": 9.2, "unit": "ng/mL"}, {"measurement": "concentration at 2 h", "setting": "[1]; [8]", "result": 6.75, "unit": "ng/mL"}, {"measurement": "concentration at 2 h", "setting": "[1]; [9]", "result": 7.62, "unit": "ng/mL"}, {"measurement": "concentration at 4 h", "setting": "[1]; iv, 1 mg/kg, IV 1.0 mg/kg, 4 h, read-out: Conc. (ng/mL) Mouse 3", "result": 2.09, "unit": "ng/mL"}, {"measurement": "AUC(0-t)", "setting": "[1]; iv, 1 mg/kg, read-out: AUClast (h * ng/mL) IV", "result": 264, "unit": "ng·h/mL"}, {"measurement": "half-life", "setting": "[1]; iv, 1 mg/kg, read-out: T ½ (h) IV (converted)", "result": 0.905, "unit": "h"}, {"measurement": "fraction unbound", "setting": "PPB", "result": 0.0066}]}]}
